In patent US20260042731A1, “(2,4-DICHLOROPHENOXY)ACETIC ACID ANALOGS” (CORTEVA AGRISCIENCE LLC, priority 2022, published 2026):
Like-named read-outs stand apart in the source and are kept apart here.

Legend:
[1] = Volatility of compounds measured by thermogravimetric analysis (TGA); assay type: physicochemical
[2] = test system: Ambrosia artemisiifolia (AMBEL), common ragweed; experiment: Postemergence herbicide evaluation, growth of Ambrosia artemisiifolia (AMBEL); assay type: in vivo; details: Ambrosia artemisiifolia, post-emergence, percent reduction in plant size vs untreated control, read-out: AVE. AMBEL; for pest or weed control at 280 g/ha: 280 g ae/ha; for pest or weed control at 560 g/ha: 560 g ae/ha
[3] = test system: glyphosate resistant Conyza canadensis (L.) (ERICA), horseweed; experiment: Postemergence herbicide evaluation, growth of Conyza canadensis (ERICA); assay type: in vivo; details: Erigeron canadensis, post-emergence, percent reduction in plant size vs untreated control, read-out: Ave. ERICA; for pest or weed control at 280 g/ha: 280 g ae/ha; for pest or weed control at 560 g/ha: 560 g ae/ha
[4] = test system: Chenopodium album (CHEAL), common lambsquarters; experiment: Postemergence herbicide evaluation, growth of Chenopodium album (CHEAL); assay type: in vivo; details: Chenopodium album, post-emergence, percent reduction in plant size vs untreated control, read-out: Ave. CHEAL; for pest or weed control at 280 g/ha: 280 g ae/ha; for pest or weed control at 560 g/ha: 560 g ae/ha
[5] = test system: weeds ABUTH, AMATA, AMBEL, CHEAL, ERICA; experiment: Postemergence herbicide evaluation, overall average % weed control across ABUTH, AMATA, AMBEL, CHEAL and ERICA; assay type: in vivo; details: post-emergence, average over five weeds, read-out: Overall Ave % Weed Control; for pest or weed control at 280 g/ha: 280 g ae/ha; for pest or weed control at 560 g/ha: 560 g ae/ha
[6] = test system: Abutilon theophrasti (ABUTH), velvetleaf; experiment: Postemergence herbicide evaluation, growth of Abutilon theophrasti (ABUTH); assay type: in vivo; details: Abutilon theophrasti, post-emergence, percent reduction in plant size vs untreated control, read-out: AVE. ABUTH; for pest or weed control at 280 g/ha: 280 g ae/ha; for pest or weed control at 560 g/ha: 560 g ae/ha
[7] = test system: Amaranthus rudis (AMATA), tall water hemp; experiment: Postemergence herbicide evaluation, growth of Amaranthus rudis (AMATA); assay type: in vivo; details: Amaranthus tuberculatus, post-emergence, percent reduction in plant size vs untreated control, read-out: Ave. AMATA; for pest or weed control at 280 g/ha: 280 g ae/ha; for pest or weed control at 560 g/ha: 560 g ae/ha
Velvetleaf (ABUTH) = experiment: Greenhouse post-emergence mixture trials, percent visual control; assay type: in vivo; details: Abutilon theophrasti, post-emergence, 504 h, ABUTH, 21 DAA; for pest or weed control at 150 g/ha: Mesotrione 150 g ai or ae/ha alone
[8] = test system: Common Lambsquarters (CHEAL); experiment: as above; assay type: in vivo; details: CHEAL, 21 DAA

With `O=C(COc1ccc(Cl)cc1Cl)ONC(=O)c1cccnc1` [Compound A19] the “TGA Data (rate of weight loss, volatility)” value [1] was 0.348 µg/min.

For `O=C(COc1ccc(Cl)cc1Cl)O/N=C/c1cccs1` [Compound A23], the “TGA Data (rate of weight loss, volatility)” value [1] was 0.3728 µg/min.

With `O=C(COc1ccc(Cl)cc1Cl)ONC(=O)c1ccc(Cl)cc1` [Compound A28] the “TGA Data (rate of weight loss, volatility)” value [1] was 0.3455 µg/min.

In the case of `O=C(COc1ccc(Cl)cc1Cl)OCOC(=O)COc1ccc(Cl)cc1Cl` [Compound B15, Methylene bis(2-(2,4-dichlorophenoxy)acetate)], the “TGA Data (rate of weight loss, volatility)” value [1] is reported as 0.3 µg/min.

For `Cc1nc2ccccc2n1C(=O)COc1ccc(Cl)cc1Cl` [Compound D12], the pest or weed control at 280 g/ha ([2]; 168 h, 7 DAA) was 75%, the pest or weed control at 560 g/ha ([2]; 168 h, 7 DAA) was 72.5% and the pest or weed control at 280 g/ha ([2]; 336 h, 14 DAA) was 67.5%. The pest or weed control at 560 g/ha ([2]; 336 h, 14 DAA) was 77.5%, the pest or weed control at 280 g/ha ([2]; 504 h, 21 DAA) was 100% and the pest or weed control at 560 g/ha ([2]; 504 h, 21 DAA) was 100%. It also gave a pest or weed control at 280 g/ha ([3]; 168 h, 7 DAA) of 85%, a pest or weed control at 560 g/ha ([3]; 168 h, 7 DAA) of 85% and a pest or weed control at 280 g/ha ([3]; 336 h, 14 DAA) of 98.5%. For the same molecule, the pest or weed control at 560 g/ha ([3]; 336 h, 14 DAA) was 99.5%, the pest or weed control at 280 g/ha ([3]; 504 h, 21 DAA) was 100% and the pest or weed control at 560 g/ha ([3]; 504 h, 21 DAA) was 100%. For the same molecule, the pest or weed control at 280 g/ha ([4]; 168 h, 7 DAA) was 80%, the pest or weed control at 560 g/ha ([4]; 168 h, 7 DAA) was 75% and the pest or weed control at 280 g/ha ([4]; 336 h, 14 DAA) was 98.5%. The pest or weed control at 560 g/ha ([4]; 336 h, 14 DAA) was 98.5%, the pest or weed control at 280 g/ha ([4]; 504 h, 21 DAA) was 90% and the pest or weed control at 560 g/ha ([4]; 504 h, 21 DAA) was 96%. It also gave a pest or weed control at 280 g/ha ([5]; 168 h, 7 DAA) of 70%, a pest or weed control at 560 g/ha ([5]; 168 h, 7 DAA) of 75.5% and a pest or weed control at 280 g/ha ([5]; 336 h, 14 DAA) of 83.9%. The pest or weed control at 560 g/ha ([5]; 336 h, 14 DAA) was 90.6%, the pest or weed control at 280 g/ha ([5]; 504 h, 21 DAA) was 84.5% and the pest or weed control at 560 g/ha ([5]; 504 h, 21 DAA) was 94%. For the same molecule, the pest or weed control at 280 g/ha ([6]; 168 h, 7 DAA) was 47.5%, the pest or weed control at 560 g/ha ([6]; 168 h, 7 DAA) was 67.5% and the pest or weed control at 280 g/ha ([6]; 336 h, 14 DAA) was 67.5%. For the same molecule, the pest or weed control at 560 g/ha ([6]; 336 h, 14 DAA) was 85%, the pest or weed control at 280 g/ha ([6]; 504 h, 21 DAA) was 67.5% and the pest or weed control at 560 g/ha ([6]; 504 h, 21 DAA) was 96.5%. The pest or weed control at 280 g/ha ([7]; 168 h, 7 DAA) was 62.5%, the pest or weed control at 560 g/ha ([7]; 168 h, 7 DAA) was 77.5% and the pest or weed control at 280 g/ha ([7]; 336 h, 14 DAA) was 87.5%. The pest or weed control at 560 g/ha ([7]; 336 h, 14 DAA) was 92.5%, the pest or weed control at 280 g/ha ([7]; 504 h, 21 DAA) was 65% and the pest or weed control at 560 g/ha ([7]; 504 h, 21 DAA) was 77.5%.

In the case of `O=C(COc1ccc(Cl)cc1Cl)Oc1ccncn1` [Compound E8], the “TGA Data (rate of weight loss, volatility)” value [1] is reported as 0.7322 µg/min.

For `O=C(COc1ccc(Cl)cc1Cl)Oc1ccncc1` [Compound E15], the “TGA Data (rate of weight loss, volatility)” value [1] was 0.03683 µg/min.

Molecule `CS(=O)(=O)c1ccc(C(=O)C2C(=O)CCCC2=O)c([N+](=O)[O-])c1` [Mesotrione, 2-[4-(methylsulfonyl)-2-nitrobenzoyl]-1,3-cyclohexanedione, reference compound] has a pest or weed control at 75 g/ha (Velvetleaf (ABUTH); Trial 2 Trt 25, B2 0 g ae/ha, Mesotrione 75 g ai or ae/ha alone) of 100%, a pest or weed control at 150 g/ha (Velvetleaf (ABUTH); Trial 2 Trt 28, B2 0 g ae/ha) of 100% and a pest or weed control at 150 g/ha (Velvetleaf (ABUTH); Trial Bridge 1 Trt 10, D10 0 g ae/ha) of 100%. The pest or weed control at 75 g/ha ([8]; Chenopodium album, post-emergence, 504 h, Trial 2 Trt 25: B2 0 g ae/ha, Mesotrione 75 g ai or ae/ha alone) was 100%, the pest or weed control at 150 g/ha ([8]; Chenopodium album, post-emergence, 504 h, Trial 2 Trt 28: B2 0 g ae/ha, Mesotrione 150 g ai or ae/ha alone) was 100% and the “% Control” value ([8]; Trial Bridge 1, mixing partner alone (D10 at 0 g ae/ha), Mesotrione 150 g ai or ae/ha) was 100%.
